The source of these data is US8648066B2 (Exelixis, Inc., priority 2009, dated 2014).

As a reminder, the IC50 is the concentration that inhibits the measured activity by half.

For the assay, the target named is mTOR/GbL/Raptor (mTORC1) (Homo sapiens, UniProt P42345). Briefly: mTOR/GbL/Raptor (mTORC1) ELISA assay. Format: biochemical. To be noted: phosphorylation of 4E-BP1; 0.2 nM mTORC1, 10 μM ATP; read-out: IC50 in this assay (mTORC1 ELISA). The method, then: The measurement of mTORC1 enzyme activity was performed in an ELISA assay format following the phosphorylation of 4E-BP1 protein. All experiments were performed in the 384-well format. Generally, 0.5 μL DMSO containing varying concentrations of the test Compound was mixed with 15 μL enzyme solution. Kinase reactions were initiated with the addition of 15 μL of substrates-containing solution. The assay conditions were as follows; 0.2 nM mTORC1, 10 μM ATP and 50 nM NHis-tagged 4E-BP1 in 20 mM Hepes, pH 7.2, 1 mM DTT, 50 mM NaCl, 10 mM MnCl2, 0.02 mg/mL BSA, 0.01% CHAPS, 50 mM β-glycerophosphate. Following an incubation of 120 minutes at ambient temperature, 20 μL of the reaction volume was transferred to a Ni-Chelate-coated 384-well plate. The binding step of the 4E-BP1 protein proceeded for 60 minutes, followed by washing 4 times each with 50 μL of Tris-buffered saline solution (TBS). Anti-phospho-4E-BP1 rabbit-IgG (20 μL, 1:5000) in 5% BSA-TBST (0.2% Tween-20 in TBS) was added and further incubated for 60 minutes. Incubation with a secondary HRP-tagged anti-IgG was similarly performed after washing off the primary antibody (4 washes of 50 μL). Following the final wash step with TBST, 20 μL of SuperSignal ELISA Femto (Pierce Biotechnology) was added and the luminescence measured using an EnVision plate reader.
(In general: ELISA stands for enzyme-linked immunosorbent assay.)
`Cc1nc2ccc(-c3ccc4c(c3)CN(c3ncnc5c3CCC(C)(C)C5)CCO4)cc2[nH]1` [Example 95, 4-(7,7-dimethyl-5,6,7,8-tetrahydroquinazolin-4-yl)-7-(2-methyl-1H-benzimidazol-6-yl)-2,3,4,5-tetrahydro-1,4-benzoxazepine]: the half-inhibitory concentration (IC50) lay in the range of 0.01 to 0.05 µM.
On to `Cc1nc2ccc(-c3ccc4c(c3)CN(c3ccnc(N)n3)CCO4)cc2[nH]1` [Example 96, 4-[7-(2-methyl-1H-benzimidazol-6-yl)-2,3-dihydro-1,4-benzoxazepin-4(5H)-yl]pyrimidin-2-amine], for which the IC50 was in the range of 0.25 to 1 µM.
Under `Cc1nc(C)c(Cc2ccc(F)cc2)c(N2CCOc3ccc(-c4ccc5nc(C)[nH]c5c4)cc3C2)n1` [Example 97, 4-{5-[(4-fluorrophenyl)methyl]-2,6-dimethylpyrimidin-4-yl}-7-(2-methyl-1H-benzimidazol-6-yl)-2,3,4,5-tetrahydro-1,4-benzoxazepine] stands no more than 0.01 µM; under `Cc1nc2ccc(-c3ccc4c(c3)CN(c3ccnc5ccccc35)CCO4)cc2[nH]1` [Example 98, 7-(2-methyl-1H-benzimidazol-6-yl)-4-quinolin-4-yl-2,3,4,5-tetrahydro-1,4-benzoxazepine], 0.05 to 0.25 µM; under `Cc1nc2ccc(-c3ccc4c(c3)CN(c3cc(C(F)(F)F)nc5ccccc35)CCO4)cc2[nH]1` [Example 99, 7-(2-methyl-1H-benzimidazol-6-yl)-4-[2-(trifluoromethyl)quinolin-4-yl]-2,3,4,5-tetrahydro-1,4-benzoxazepine], 0.05 to 0.25 µM.
The figure for `Cc1nc2ccc(-c3ccc4c(c3)CN(c3cc(-c5ccccc5)nc5ccccc35)CCO4)cc2[nH]1` [Example 100, 7-(2-methyl-1H-benzimidazol-6-yl)-4-(2-phenylquinolin-4-yl)-2,3,4,5-tetrahydro-1,4-benzoxazepine] is 0.25 to 1 µM.
Under `Cc1nc2ccc(-c3ccc4c(c3)CN(c3ccnc(C)c3Cc3ccccc3)CCO4)cc2[nH]1` [Example 101, 7-(2-methyl-1H-benzimidazol-6-yl)-4-[2-methyl-3-(phenylmethyl)pyridin-4-yl]-2,3,4,5-tetrahydro-1,4-benzoxazepine] stands 0.01 to 0.05 µM; under `Cc1nc2ccc(-c3ccc4c(c3)CN(c3ccnc(C)c3Cc3ccc(F)cc3)CCO4)cc2[nH]1` [Example 102, 4-{3-[(4-fluorophenyl)methyl]-2-methylpyridin-4-yl}-7-(2-methyl-1H-benzimidazol-6-yl)-2,3,4,5-tetrahydro-1,4-benzoxazepine], no more than 0.01 µM.
Turning to `Cc1nc2ccc(-c3ccc4c(c3)CN(c3ccnc(C)c3Cc3cccc(F)c3)CCO4)cc2[nH]1` [Example 103, 4-{3-[(3-fluorophenyl)methyl]-2-methylpyridin-4-yl}-7-(2-methyl-1H-benzimidazol-6-yl)-2,3,4,5-tetrahydro-1,4-benzoxazepine], the IC50 was no more than 0.01 µM.
The figure for `Cc1nc2ccc(-c3ccc4c(c3)CN(c3nccc5ccccc35)CCO4)cc2[nH]1` [Example 105, 4-isoquinolin-1-yl-7-(2-methyl-1H-benzimidazol-6-yl)-2,3,4,5-tetrahydro-1,4-benzoxazepine] is 0.05 to 0.25 µM; for `COC(=O)Nc1nc2ccc(-c3ccc4c(c3)CN(c3ccncn3)CCO4)cc2[nH]1` [Example 107, methyl-6[(4-pyrimidin-4-yl-2,3,4,5-tetrahydro-1,4-benzoxazepin-7-yl)-1H-benzimidazol-2-yl]carbamate] it is no less than 2 µM.
The figure for `COC(=O)Nc1nc2ccc(-c3ccc4c(c3)CN(c3nc(C)nc5ccccc35)CCO4)cc2[nH]1` [Example 108, methyl {6-[4-(2-methylquinazolin-4-yl)-2,3,4,5-tetrahydro-1,4-benzoxazepin-7-yl]-1H-benzimidazol-2-yl}carbamate] is 0.25 to 1 µM.
The figure for `COC(=O)Nc1nc2ccc(-c3ccc4c(c3)CN(c3ncnc5ccccc35)CCO4)cc2[nH]1` [Example 109, methyl [6-(4-quinazolin-4-yl-2,3,4,5-tetrahydro-1,4-benzoxazepin-7-yl)-1H-benzimidazol-2-yl]carbamate] is 0.25 to 1 µM.
As for `COC(=O)Nc1nc2ccc(-c3ccc4c(c3)CN(c3ncnc5[nH]ccc35)CCO4)cc2[nH]1` [Example 110, methyl {6-[4-(7H-pyrrolo[2,3-d]pyrimidin-4-yl)-2,3,4,5-tetrahydro-1,4-benzoxazepin-7-yl]-1H-benzimidazol-2-yl}carbamate], the half-inhibitory concentration (IC50) was no less than 2 µM.
Under `COC(=O)Nc1nc2ccc(-c3ccc4c(c3)CN(c3ncnc5cc(OC)c(OC)cc35)CCO4)cc2[nH]1` [Example 111, methyl (6-{4-[6,7-bis(methyloxy)quinazolin-4-yl]-2,3,4,5-tetrahydro-1,4-benzoxazepin-7-yl}-1H-benzimidazol-2-yl)carbamate] stands 1 to 2 µM; under `COC(=O)Nc1nc2ccc(-c3ccc4c(c3)CN(c3ncnc5ccc(OC)cc35)CCO4)cc2[nH]1` [Example 112, methyl (6-{4-[6-(methyloxy)quinazolin-4-yl]-2,3,4,5-tetrahydro-1,4-benzoxazepin-7-yl}-1H-benzimidazol-2-yl)carbamate], 0.25 to 1 µM; under `COC(=O)Nc1nc2ccc(-c3ccc4c(c3)CN(c3ncnc(C)c3Cc3ccc(F)cc3)CCO4)cc2[nH]1` [Example 113, methyl [6-(4-{5-[(4-fluorophenyl)methyl]-6-methylpyrimidin-4-yl}-2,3,4,5-tetrahydro-1,4-benzoxazepin-7-yl)-1H-benzimidazol-2-yl]carbamate], 0.01 to 0.05 µM.
Under `COC(=O)Nc1nc2ccc(-c3ccc4c(c3)CN(c3ccnc5ccccc35)CCO4)cc2[nH]1` [Example 114, methyl [6-(4-quinolin-4-yl-2,3,4,5-tetrahydro-1,4-benzoxazepin-7-yl)-1H-benzimidazol-2-yl]carbamate] stands 0.25 to 1 µM; under `Cn1c(N)nc2cc(-c3ccc4c(c3)CN(c3ccnc5ccccc35)CCO4)ccc21` [Example 116, 1-methyl-5-(4-quinolin-4-yl-2,3,4,5-tetrahydro-1,4-benzoxazepin-7-yl)-1H-benzimidazol-2-amine], 1 to 2 µM.
Consider `c1ccc2c(N3CCOc4ccc(-c5ccc6nc[nH]c6c5)cc4C3)ncnc2c1` [Example 123, 7-(1H-benzimidazol-6-yl)-4-quinazolin-4-yl-2,3,4,5-tetrahydro-1,4-benzoxazepine], for which the IC50 fell in the range of 0.05 to 0.25 µM.
Under `Cc1ncnc(N2CCOc3ccc(-c4cnc(N)s4)cc3C2)c1Cc1ccc(F)cc1` [Example 124, 5-(4-{5-[(4-fluorophenyl)methyl]-6-methylpyrimidin-4-yl}-2,3,4,5-tetrahydro-1,4-benzoxazepin-7-yl)-1,3-thiazol-2-amine] stands no more than 0.01 µM; under `c1ccc2c(N3CCOc4ccc(-c5ccc6nc[nH]c6c5)cc4C3)ccnc2c1` [Example 126, 7-(1H-benzimidazol-6-yl)-4-quinolin-4-yl-2,3,4,5-tetrahydro-1,4-benzoxazepine], 0.25 to 1 µM; under `c1ccc2c(N3CCOc4ccc(-c5ccc6scnc6c5)cc4C3)ccnc2c1` [Example 129, 7-(1,3-benzothiazol-5-yl)-4-quinolin-4-yl-2,3,4,5-tetrahydro-1,4-benzoxazepine], 0.25 to 1 µM.
For `Cc1ncnc(N2CCOc3ccc(-c4ccc(-c5ncc[nH]5)cc4)cc3C2)c1Cc1ccc(F)cc1` [Example 131, 4-{5-[(4-fluorophenyl)methyl]-6-methylpyrimidin-4-yl}-7-[4-(1H-imidazol-2-yl)phenyl]-2,3,4,5-tetrahydro-1,4-benzoxazepine], the IC50 is no more than 0.01 µM.
Turning to `c1ccc2c(N3CCOc4ccc(-c5ccc6nccnc6c5)cc4C3)ccnc2c1` [Example 132, 4-quinolin-4-yl-7-quinoxalin-6-yl-2,3,4,5-tetrahydro-1,4-benzoxazepine], the IC50 was no less than 2 µM.
Under `CN(C)C(=O)c1cccc(-c2ccc3c(c2)CN(c2ccnc4ccccc24)CCO3)c1` [Example 134, N,N-dimethyl-3-(4-quinolin-4-yl-2,3,4,5-tetrahydro-1,4-benzoxazepin-7-yl)benzamide] stands no less than 2 µM; under `c1ccc2c(N3CCOc4ccc(-c5ccc6c(c5)CCO6)cc4C3)ccnc2c1` [Example 135, 7-(2,3-dihydro-1-benzofuran-5-yl)-4-quinolin-4-yl-2,3,4,5-tetrahydro-1,4-benzoxazepine], 1 to 2 µM.
As for `c1ccc2c(N3CCOc4ccc(-c5ccc6cn[nH]c6c5)cc4C3)ccnc2c1` [Example 136, 7-(1H-indazol-6-yl)-4-quinolin-4-yl-2,3,4,5-tetrahydro-1,4-benzoxazepine], the IC50 was in the range of 1 to 2 µM.
Regarding `c1ccc2c(N3CCOc4ccc(-c5cn[nH]c5)cc4C3)ccnc2c1` [Example 137, 7-(1H-pyrazol-4-yl)-4-quinolin-4-yl-2,3,4,5-tetrahydro-1,4-benzoxazepine], the concentration for half-maximal inhibition (IC50) lay within 1 to 2 µM.
Under `c1ccc2c(N3CCOc4ccc(-c5ccc6[nH]ncc6c5)cc4C3)ccnc2c1` [Example 138, 7-(1H-indazol-5-yl)-4-quinolin-4-yl-2,3,4,5-tetrahydro-1,4-benzoxazepine] stands no less than 2 µM.
